Assay results: ChEMBL document CHEMBL5653598, “In vivo antitumor activity of NVP-AEW541-A novel, potent, and selective inhibitor of the IGF-IR kinase” (Cancer Cell, 2004)
Active and inactive are the calls of the source. The rule behind the calls is not given here.

Experiments:
Insulin receptor [1] = target: T1, Insulin receptor (Homo sapiens, UniProt P06213); test: Inhibition of GST tagged human Ins-R expressed in baculovirus at pH 7.6 measured after 20 mins in presence of gamma-[33P]-ATP by scintillation counter analysis
T1 sequence (P06213 28-758 limits assumed): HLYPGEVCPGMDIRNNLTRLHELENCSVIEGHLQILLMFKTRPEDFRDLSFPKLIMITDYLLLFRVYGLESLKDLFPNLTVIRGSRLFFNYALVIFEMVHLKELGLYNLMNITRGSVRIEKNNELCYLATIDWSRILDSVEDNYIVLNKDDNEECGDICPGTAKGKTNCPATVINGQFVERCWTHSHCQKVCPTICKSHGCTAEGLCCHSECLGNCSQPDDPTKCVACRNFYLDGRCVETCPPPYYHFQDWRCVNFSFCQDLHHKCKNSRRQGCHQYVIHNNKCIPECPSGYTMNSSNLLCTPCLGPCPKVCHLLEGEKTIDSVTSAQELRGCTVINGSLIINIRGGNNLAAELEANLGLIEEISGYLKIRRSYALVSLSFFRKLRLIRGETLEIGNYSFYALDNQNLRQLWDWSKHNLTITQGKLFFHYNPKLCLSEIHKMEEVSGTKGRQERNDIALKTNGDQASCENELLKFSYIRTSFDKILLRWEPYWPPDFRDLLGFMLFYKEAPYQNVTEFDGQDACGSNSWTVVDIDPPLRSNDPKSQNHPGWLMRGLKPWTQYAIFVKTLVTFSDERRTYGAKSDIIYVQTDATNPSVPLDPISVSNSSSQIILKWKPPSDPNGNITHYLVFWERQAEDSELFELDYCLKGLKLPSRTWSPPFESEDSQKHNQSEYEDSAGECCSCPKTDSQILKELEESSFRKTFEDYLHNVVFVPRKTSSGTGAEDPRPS
T1 sequence (P06213 763-1382 limits assumed): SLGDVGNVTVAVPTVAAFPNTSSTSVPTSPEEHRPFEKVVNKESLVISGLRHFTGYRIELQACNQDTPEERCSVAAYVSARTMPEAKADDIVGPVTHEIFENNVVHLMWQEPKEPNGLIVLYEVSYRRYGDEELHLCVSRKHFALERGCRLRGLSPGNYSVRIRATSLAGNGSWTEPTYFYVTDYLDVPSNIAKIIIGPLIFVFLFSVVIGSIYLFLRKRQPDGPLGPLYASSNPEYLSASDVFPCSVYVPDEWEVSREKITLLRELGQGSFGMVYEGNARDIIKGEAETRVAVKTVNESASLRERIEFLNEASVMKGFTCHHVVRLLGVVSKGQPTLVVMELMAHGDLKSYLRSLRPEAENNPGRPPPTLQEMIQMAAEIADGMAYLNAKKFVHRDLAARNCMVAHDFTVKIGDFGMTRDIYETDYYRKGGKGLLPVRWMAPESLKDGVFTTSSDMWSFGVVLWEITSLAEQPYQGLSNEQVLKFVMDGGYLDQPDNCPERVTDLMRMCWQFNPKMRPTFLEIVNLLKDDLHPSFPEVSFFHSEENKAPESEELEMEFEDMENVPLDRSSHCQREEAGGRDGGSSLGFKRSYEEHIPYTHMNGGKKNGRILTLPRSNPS

[2] = target: T2, Epidermal growth factor receptor (Homo sapiens, UniProt P00533); test: Inhibition of GST tagged human HER-1 expressed in baculovirus at pH 7.5 measured after 15 mins in presence of gamma-[33P]-ATP by scintillation counter analysis
T2 sequence (P00533 whole entry): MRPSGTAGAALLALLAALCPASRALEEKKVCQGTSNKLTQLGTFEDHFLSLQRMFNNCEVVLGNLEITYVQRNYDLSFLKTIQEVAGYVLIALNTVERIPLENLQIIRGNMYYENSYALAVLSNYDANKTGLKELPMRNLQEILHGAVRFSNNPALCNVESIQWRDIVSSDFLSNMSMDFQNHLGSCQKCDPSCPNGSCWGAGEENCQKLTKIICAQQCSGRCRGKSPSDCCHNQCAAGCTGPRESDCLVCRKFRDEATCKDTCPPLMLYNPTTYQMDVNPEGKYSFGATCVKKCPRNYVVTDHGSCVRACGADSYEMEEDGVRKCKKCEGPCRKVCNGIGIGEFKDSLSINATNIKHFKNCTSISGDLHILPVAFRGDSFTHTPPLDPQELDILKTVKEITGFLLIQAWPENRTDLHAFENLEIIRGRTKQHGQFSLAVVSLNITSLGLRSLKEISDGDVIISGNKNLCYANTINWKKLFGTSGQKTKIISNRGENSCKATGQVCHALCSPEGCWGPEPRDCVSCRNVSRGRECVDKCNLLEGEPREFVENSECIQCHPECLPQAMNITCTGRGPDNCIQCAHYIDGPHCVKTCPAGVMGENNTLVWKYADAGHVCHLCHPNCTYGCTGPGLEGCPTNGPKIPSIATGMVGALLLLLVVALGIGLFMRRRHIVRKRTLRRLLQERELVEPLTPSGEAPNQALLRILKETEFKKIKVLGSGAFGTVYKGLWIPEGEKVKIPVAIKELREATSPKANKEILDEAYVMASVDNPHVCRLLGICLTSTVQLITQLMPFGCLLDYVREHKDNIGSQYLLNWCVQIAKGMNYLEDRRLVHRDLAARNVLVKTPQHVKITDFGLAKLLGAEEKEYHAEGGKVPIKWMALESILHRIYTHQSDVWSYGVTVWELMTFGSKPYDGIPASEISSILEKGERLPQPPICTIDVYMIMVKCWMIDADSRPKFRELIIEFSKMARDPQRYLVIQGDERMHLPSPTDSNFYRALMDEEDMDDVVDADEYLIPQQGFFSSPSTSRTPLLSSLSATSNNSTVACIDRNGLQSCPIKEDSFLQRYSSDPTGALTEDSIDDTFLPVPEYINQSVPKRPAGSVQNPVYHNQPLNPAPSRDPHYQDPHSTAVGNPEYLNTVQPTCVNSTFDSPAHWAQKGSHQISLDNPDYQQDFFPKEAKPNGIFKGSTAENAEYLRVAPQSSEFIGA

[3] = target: Receptor tyrosine-protein kinase erbB-2 (Homo sapiens, UniProt P04626); test: Inhibition of GST tagged human HER-2 expressed in baculovirus at pH 7.5 measured after 15 mins in presence of gamma-[33P]-ATP by scintillation counter analysis
Chain of Receptor tyrosine-protein kinase erbB-2 (P04626 whole entry): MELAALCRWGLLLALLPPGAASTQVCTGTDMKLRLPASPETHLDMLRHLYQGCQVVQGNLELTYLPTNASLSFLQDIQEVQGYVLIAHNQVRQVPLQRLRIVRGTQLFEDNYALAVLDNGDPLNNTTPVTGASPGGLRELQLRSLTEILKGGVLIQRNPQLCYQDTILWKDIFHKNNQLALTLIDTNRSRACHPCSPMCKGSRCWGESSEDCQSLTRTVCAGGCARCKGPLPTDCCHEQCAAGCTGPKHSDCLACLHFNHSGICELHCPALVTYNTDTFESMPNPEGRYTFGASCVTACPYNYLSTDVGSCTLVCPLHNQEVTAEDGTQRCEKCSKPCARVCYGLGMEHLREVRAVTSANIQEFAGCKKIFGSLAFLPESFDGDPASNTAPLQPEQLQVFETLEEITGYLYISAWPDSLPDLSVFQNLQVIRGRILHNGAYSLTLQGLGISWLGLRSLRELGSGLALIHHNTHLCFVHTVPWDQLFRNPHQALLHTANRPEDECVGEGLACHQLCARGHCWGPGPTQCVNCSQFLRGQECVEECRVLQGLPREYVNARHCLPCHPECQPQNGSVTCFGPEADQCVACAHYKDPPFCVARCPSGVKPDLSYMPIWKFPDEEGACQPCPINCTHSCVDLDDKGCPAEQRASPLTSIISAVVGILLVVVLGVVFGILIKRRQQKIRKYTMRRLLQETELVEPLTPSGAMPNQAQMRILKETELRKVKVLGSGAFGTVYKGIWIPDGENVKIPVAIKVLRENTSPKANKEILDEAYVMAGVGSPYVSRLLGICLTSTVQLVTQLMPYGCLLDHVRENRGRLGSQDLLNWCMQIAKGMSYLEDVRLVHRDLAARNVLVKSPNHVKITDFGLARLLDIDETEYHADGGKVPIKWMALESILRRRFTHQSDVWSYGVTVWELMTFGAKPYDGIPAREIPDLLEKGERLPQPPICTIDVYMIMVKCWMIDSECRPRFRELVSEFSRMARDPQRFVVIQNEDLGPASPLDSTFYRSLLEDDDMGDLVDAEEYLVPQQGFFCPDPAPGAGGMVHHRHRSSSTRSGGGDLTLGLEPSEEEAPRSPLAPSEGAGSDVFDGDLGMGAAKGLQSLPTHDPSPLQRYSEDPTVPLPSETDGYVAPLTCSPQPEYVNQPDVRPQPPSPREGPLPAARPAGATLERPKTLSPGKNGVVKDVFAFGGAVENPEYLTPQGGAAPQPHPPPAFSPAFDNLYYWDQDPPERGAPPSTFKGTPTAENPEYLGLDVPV

[4] = target: Receptor tyrosine-protein kinase erbB-4 (Homo sapiens, UniProt Q15303); test: Inhibition of GST tagged human HER-4 expressed in baculovirus at pH 7.5 measured after 15 mins in presence of gamma-[33P]-ATP by scintillation counter analysis
[5] = target: Vascular endothelial growth factor receptor 2 (Homo sapiens, UniProt P35968); test: Inhibition of GST tagged KDR (unknown origin) expressed in baculovirus at pH 7.6 measured after 10 to 30 mins in presence of gamma-[33P]-ATP by scintillation counter analysis
Angiopoietin-1 receptor = Angiopoietin-1 receptor (Homo sapiens, UniProt Q02763); test: Inhibition of GST tagged Tek (unknown origin) expressed in baculovirus at pH 7.6 measured after 10 to 30 mins in presence of gamma-[33P]-ATP by scintillation counter analysis
[6] = target: Platelet-derived growth factor receptor beta (Homo sapiens, UniProt P09619); test: Inhibition of GST tagged PDGFR-beta (unknown origin) expressed in baculovirus at pH 7.6 measured after 10 to 30 mins in presence of gamma-[33P]-ATP by scintillation counter analysis
[7] = target: Hepatocyte growth factor receptor (Homo sapiens, UniProt P08581); test: Inhibition of GST tagged c-Met (unknown origin) expressed in baculovirus at pH 7.6 measured after 10 to 30 mins in presence of gamma-[33P]-ATP by scintillation counter analysis
[8] = target: Tyrosine-protein kinase ABL1 (Homo sapiens, UniProt P00519); test: Inhibition of GST tagged c-Abl (unknown origin) expressed in baculovirus infected Sf9 cells at pH 7.5 measured after 10 mins in presence of gamma-[33P]-ATP by scintillation counter analysis
[9] = target: Proto-oncogene tyrosine-protein kinase Src (Gallus gallus, UniProt P00523); test: Inhibition of GST tagged chicken c-Src expressed in baculovirus at pH 7.5 measured after 10 mins in presence of gamma-[33P]-ATP by scintillation counter analysis
[10] = target: T3, Mast/stem cell growth factor receptor Kit (Homo sapiens, UniProt P10721); test: Inhibition of GST tagged c-Kit (unknown origin) expressed in baculovirus at pH 7.6 measured after 10 to 30 mins in presence of gamma-[33P]-ATP by scintillation counter analysis
T3 sequence (P10721 whole entry): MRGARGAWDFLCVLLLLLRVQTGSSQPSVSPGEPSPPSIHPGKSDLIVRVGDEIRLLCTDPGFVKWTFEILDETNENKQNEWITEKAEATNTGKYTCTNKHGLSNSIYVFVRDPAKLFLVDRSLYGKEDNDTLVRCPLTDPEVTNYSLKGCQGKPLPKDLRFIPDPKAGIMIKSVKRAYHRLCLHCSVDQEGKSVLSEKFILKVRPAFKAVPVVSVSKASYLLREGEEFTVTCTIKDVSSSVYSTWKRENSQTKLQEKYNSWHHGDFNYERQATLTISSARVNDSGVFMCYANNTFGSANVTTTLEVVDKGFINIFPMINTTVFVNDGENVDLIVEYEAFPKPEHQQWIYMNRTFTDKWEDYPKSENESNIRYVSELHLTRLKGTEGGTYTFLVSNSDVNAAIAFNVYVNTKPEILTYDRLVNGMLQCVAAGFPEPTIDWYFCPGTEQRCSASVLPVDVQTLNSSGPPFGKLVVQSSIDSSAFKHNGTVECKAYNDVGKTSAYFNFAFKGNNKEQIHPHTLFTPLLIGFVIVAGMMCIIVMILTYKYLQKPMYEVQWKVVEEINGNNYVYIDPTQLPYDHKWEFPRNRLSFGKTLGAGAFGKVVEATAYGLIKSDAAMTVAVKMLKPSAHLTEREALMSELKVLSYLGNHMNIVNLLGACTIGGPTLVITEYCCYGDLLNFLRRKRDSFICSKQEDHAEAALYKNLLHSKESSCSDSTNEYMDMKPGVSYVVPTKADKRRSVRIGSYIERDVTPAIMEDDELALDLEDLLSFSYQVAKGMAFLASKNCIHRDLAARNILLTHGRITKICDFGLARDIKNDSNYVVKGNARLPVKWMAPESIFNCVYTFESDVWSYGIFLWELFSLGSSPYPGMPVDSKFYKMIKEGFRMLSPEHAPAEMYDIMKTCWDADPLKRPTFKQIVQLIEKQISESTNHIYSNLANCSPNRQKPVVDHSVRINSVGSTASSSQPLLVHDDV

[11] = target: Vascular endothelial growth factor receptor 3 (Homo sapiens, UniProt P35916); test: Inhibition of GST tagged human Flt-4 expressed in baculovirus at pH 7.6 measured after 15 mins in presence of gamma-[33P]-ATP by scintillation counter analysis
[12] = target: Vascular endothelial growth factor receptor 1 (Homo sapiens, UniProt P17948); test: Inhibition of GST tagged Flt-1 (unknown origin) expressed in baculovirus at pH 7.6 measured after 10 to 30 mins in presence of gamma-[33P]-ATP by scintillation counter analysis
[13] = target: T4, Receptor-type tyrosine-protein kinase FLT3 (Homo sapiens, UniProt P36888); test: Inhibition of GST tagged human Flt-3 expressed in baculovirus at pH 7.6 measured after 15 mins in presence of gamma-[33P]-ATP by scintillation counter analysis
T4 sequence (P36888 whole entry): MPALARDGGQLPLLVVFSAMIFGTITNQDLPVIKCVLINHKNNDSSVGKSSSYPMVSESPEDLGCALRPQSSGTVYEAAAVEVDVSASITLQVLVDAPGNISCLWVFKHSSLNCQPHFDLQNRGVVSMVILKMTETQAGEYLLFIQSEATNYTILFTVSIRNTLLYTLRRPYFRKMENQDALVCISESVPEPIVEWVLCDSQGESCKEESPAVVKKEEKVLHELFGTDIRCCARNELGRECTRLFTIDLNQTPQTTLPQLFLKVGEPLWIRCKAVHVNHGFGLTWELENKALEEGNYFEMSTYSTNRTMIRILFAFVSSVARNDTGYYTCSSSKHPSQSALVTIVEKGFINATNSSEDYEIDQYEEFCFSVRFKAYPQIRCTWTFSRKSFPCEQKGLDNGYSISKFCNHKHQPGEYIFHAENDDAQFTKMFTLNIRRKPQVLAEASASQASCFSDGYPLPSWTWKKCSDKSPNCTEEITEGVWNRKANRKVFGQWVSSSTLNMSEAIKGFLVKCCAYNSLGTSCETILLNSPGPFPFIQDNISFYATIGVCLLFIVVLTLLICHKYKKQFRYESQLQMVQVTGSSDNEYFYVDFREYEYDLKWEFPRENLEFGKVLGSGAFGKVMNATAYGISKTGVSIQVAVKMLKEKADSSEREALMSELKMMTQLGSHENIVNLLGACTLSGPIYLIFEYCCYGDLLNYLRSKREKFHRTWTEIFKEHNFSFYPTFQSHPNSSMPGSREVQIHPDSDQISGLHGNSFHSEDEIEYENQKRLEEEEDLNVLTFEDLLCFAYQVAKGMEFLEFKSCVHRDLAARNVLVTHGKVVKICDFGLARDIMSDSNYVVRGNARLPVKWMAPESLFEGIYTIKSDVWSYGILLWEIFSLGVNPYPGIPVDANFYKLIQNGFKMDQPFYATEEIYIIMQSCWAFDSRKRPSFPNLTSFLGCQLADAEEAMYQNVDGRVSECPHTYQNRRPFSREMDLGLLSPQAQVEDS

[14] = target: Fibroblast growth factor receptor 1 (Homo sapiens, UniProt P11362); test: Inhibition of GST tagged FGFR-1 (unknown origin) expressed in baculovirus at pH 7.6 measured after 10 to 30 mins in presence of gamma-[33P]-ATP by scintillation counter analysis
[15] = target: RAC-alpha serine/threonine-protein kinase (Homo sapiens, UniProt P31749); test: Inhibition of human PKB expressed in baculovirus at pH 7.2 measured after 30 mins in presence of gamma-[33P]-ATP by scintillation counter analysis
[16] = Inhibition of starfish Cdk1/cycB expressed in baculovirus at pH 8.0 measured after 30 mins in presence of gamma-[33P]-ATP by scintillation counter analysis; design: species or system Asteroidea
[17] = target: RAF proto-oncogene serine/threonine-protein kinase (Homo sapiens, UniProt P04049); test: Inhibition of GST-tagged c-Raf-1 (unknown origin) expressed in baculovirus infected in Sf21 cells at pH 7.5 measured after 30 mins in presence of gamma-[33P]-ATP by scintillation counter analysis
[18] = Inhibition of rabbit PKA expressed in baculovirus at pH 7.0 measured after 20 mins in presence of gamma-[33P]-ATP by scintillation counter analysis; design: species or system Oryctolagus cuniculus
Insulin receptor [19] = target: T1, Insulin receptor; test: Inhibition of Ins-R in A14 [Human melanoma] cells assessed as inhibition of autophosphorylation of Ins-R incubated for 90 mins followed by insulin stimulation measured after 10 mins by ELISA analysis; type: cell-based
[20] = target: T2, Epidermal growth factor receptor; test: Inhibition of HER-1 in human A-431 cells assessed as inhibition of autophosphorylation of HER-1 incubated for 90 mins followed by EGF stimulation measured after 10 mins in presence of anti-EGFR Ab5 by ELISA analysis; type: cell-based
[21] = Inhibition of PDGFR (unknown origin) in mouse BALB/3T3 clone A31 cells assessed as inhibition of autophosphorylation of PDGFR incubated for 90 mins followed by PDGF BB stimulation measured after 10 mins in presence of anti-PDGF-R Receptor Type A/B antibody by ELISA analysis; type: cell-based; details: Homo sapiens
[22] = target: T3, Mast/stem cell growth factor receptor Kit; test: Inhibition of c-Kit (unknown origin) in human GIST882 cells assessed as inhibition of autophosphorylation of c-Kit incubated for 90 mins in presence of anti-CD117 antibody by ELISA analysis; type: cell-based
NWT-21 [23] = test: Antitumor activity against mouse NWT-21 cells xenografted in Hsd athymic nude mouse assessed as inhibition of tumor growth at 20 mg/kg, po bid administered for 7 weeks relative to control; type: functional; details: NWT-21, po, 1176 h
NWT-21 [24] = test: Antitumor activity against mouse NWT-21 cells xenografted in Hsd athymic nude mouse assessed as inhibition of tumor growth at 30 mg/kg, po bid administered for 7 weeks relative to control; type: functional; details: NWT-21, 1176 h, read-out: GI
NWT-21 [25] = test: Antitumor activity against mouse NWT-21 cells xenografted in Hsd athymic nude mouse assessed as inhibition of tumor growth at 50 mg/kg, po bid administered for 7 weeks relative to control; type: functional; details: NWT-21, 1176 h
[26] = Toxicity in Hsd athymic nude mouse xenografted with NWT-21 cells assessed as body weight at 20 to 50 mg/kg, po bid administered for 7 weeks; type: organism-based; details: in vivo, 1176 h, dose 20-50 mg/kg
NWT-21 [27] = test: Antitumor activity against mouse NWT-21 cells xenografted in Hsd athymic nude mouse assessed as plasma glucose level at 50 mg/kg, po bid measured after 1 day; type: functional
NWT-21 [28] = test: Antitumor activity against mouse NWT-21 cells xenografted in Hsd athymic nude mouse assessed as plasma glucose level at 50 mg/kg, po bid measured after 10 days; type: functional; details: time 10 day
NWT-21 [29] = test: Antitumor activity against mouse NWT-21 cells xenografted in Hsd athymic nude mouse assessed as plasma insulin level at 50 mg/kg, po bid measured after 1 day; type: functional
NWT-21 [30] = test: Antitumor activity against mouse NWT-21 cells xenografted in Hsd athymic nude mouse assessed as plasma insulin level at 50 mg/kg, po bid measured after 10 day; type: functional
Mus musculus [31] = species on record: Mus musculus; details: Harlan, dose 50.0 mg/kg, route po, time 1.0 hrs
Mus musculus [32] = species on record: Mus musculus; details: Harlan, dose 50.0 mg/kg, route po, time 1.0 hrs; remark: listed apart in the source
Mus musculus [33] = species on record: Mus musculus; details: Harlan, dose 50.0 mg/kg, route po, time 1.0 hrs; remark: listed apart in the source
NWT-21 [34] = details: Mus musculus, dose 50.0 mg/kg, route po, time 1.0 hrs
NWT-21 [35] = details: Mus musculus, dose 50.0 mg/kg, route po, time 1.0 hrs; remark: listed apart in the source
NWT-21 [36] = details: Mus musculus, dose 50.0 mg/kg, route po, time 1.0 hrs; remark: listed apart in the source
NWT-21 [37] = details: Mus musculus, dose 50.0 mg/kg, route po, time 1.0 hrs; remark: listed apart in the source

IC50 (Insulin receptor [1]): 140 nM
IC50 [2]: 5800 nM
IC50 [3]: 4100 nM
IC50 [4]: 1400 nM
IC50 [5]: 2300 nM
IC50 (Angiopoietin-1 receptor): 530 nM
IC50 [6]: 2000 nM
IC50 [7]: 3800 nM
IC50 [8]: > 10000 nM
IC50 [9]: 2400 nM
IC50 [10]: 3300 nM
IC50 [11]: 2400 nM
IC50 [12]: 600 nM
IC50 [13]: 420 nM
IC50 [14]: 4100 nM
IC50 [15]: > 10000 nM
IC50 [17]: > 10000 nM
IC50 (Insulin receptor [19]): 2300 nM
IC50 [20]: > 10000 nM
IC50 [21]: > 10000 nM
IC50 [22]: > 5000 nM
Structure (SMILES): Nc1ncnc2c1c(-c1cccc(OCc3ccccc3)c1)cn2[C@H]1C[C@@H](CN2CCC2)C1
IC50 [16]: > 10000 nM
IC50 [18]: > 10000 nM
T/C at 20 mg/kg (NWT-21 [23]): 32%
inhibition in vivo at 30 mg/kg (NWT-21 [24]): 28%
T/C at 50 mg/kg (NWT-21 [25]): 14%
Activity [26]: Non-Toxic
Activity (NWT-21 [27]): 197.4 mg/dL
Activity (NWT-21 [28]): 204.4 mg/dL
Activity (NWT-21 [29]): 14.4 uU/ml
Activity (NWT-21 [30]): 28.9 uU/ml
inhibition (Mus musculus [31]): Active
inhibition (Mus musculus [32]): Active
inhibition (Mus musculus [33]): Active
inhibition (NWT-21 [34]): Active
inhibition (NWT-21 [35]): Active
inhibition (NWT-21 [36]): Active
inhibition (NWT-21 [37]): Active
